The record followed here is ChEMBL document CHEMBL1155005, “Ligands to the (IRAP)/AT4 receptor encompassing a 4-hydroxydiphenylmethane scaffold replacing Tyr2” (Bioorg Med Chem, 2008).

pKi: −log10 of the molar value.

This assay deals with Aminopeptidase N (Homo sapiens, UniProt P15144). The experiment in a line: Inhibition of human recombinant APN expressed in HEK293 cells. It is filed as cell-based.
Chain of Aminopeptidase N (P15144 whole entry): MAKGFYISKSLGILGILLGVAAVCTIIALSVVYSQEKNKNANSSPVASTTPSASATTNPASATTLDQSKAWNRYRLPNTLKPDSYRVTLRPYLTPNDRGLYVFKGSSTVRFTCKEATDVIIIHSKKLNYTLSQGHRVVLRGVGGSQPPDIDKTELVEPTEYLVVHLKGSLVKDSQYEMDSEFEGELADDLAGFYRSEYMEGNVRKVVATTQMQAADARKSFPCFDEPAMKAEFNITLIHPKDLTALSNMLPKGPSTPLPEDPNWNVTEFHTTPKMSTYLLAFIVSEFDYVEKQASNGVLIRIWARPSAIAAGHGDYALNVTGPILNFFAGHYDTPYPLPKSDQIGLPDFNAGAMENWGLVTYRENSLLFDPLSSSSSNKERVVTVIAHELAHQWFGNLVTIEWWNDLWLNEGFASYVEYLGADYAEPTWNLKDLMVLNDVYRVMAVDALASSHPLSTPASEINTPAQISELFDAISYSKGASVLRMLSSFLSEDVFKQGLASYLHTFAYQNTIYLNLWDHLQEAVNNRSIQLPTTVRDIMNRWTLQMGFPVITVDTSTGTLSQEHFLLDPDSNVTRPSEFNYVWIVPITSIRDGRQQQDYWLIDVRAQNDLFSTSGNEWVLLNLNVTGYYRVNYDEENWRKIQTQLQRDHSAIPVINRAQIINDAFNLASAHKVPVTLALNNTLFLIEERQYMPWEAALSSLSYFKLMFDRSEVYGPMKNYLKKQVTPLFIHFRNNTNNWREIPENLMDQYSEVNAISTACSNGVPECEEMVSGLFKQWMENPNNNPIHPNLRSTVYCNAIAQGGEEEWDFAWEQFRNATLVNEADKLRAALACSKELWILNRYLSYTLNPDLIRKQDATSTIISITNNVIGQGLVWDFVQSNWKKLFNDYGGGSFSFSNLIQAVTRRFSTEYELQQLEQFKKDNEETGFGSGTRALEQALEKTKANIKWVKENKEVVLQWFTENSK

Consider `CC[C@@H](C)[C@H](NC(=O)c1cc(N)cc(Cc2ccc(O)cc2)c1)C(=O)NCc1ccccc1CC(=O)O`, for which the pKi (in general, −log10 of the Ki, conventionally taken in molar units) was < 4.00.

With `Nc1cc(Cc2ccc(O)cc2)cc(C(=O)NCc2ccccc2CC(=O)O)c1`, the pKi was < 4.00.
